Consider four molecules from US7576109B2, “1,3,4-oxadiazol-2-ones as PPAR delta modulators and their use thereof” (Aventis Pharmaceuticals Inc., priority 2004, dated 2009).

The assay concerns rat oligodendrocyte cultures. As to the kind of experiment: Primary rat oligodendrocyte differentiation assay (myelin basic protein expression). In kind it is cell-based. As to conditions: primary rat oligodendrocytes, compared to untreated controls. An excerpt:
• 1. Primary rat oligodendrocyte progenitor cells are obtained from the neocortex of newborn (postnatal days 2-3) rats or mice and are enriched, after removal of microglia, by mechanical separation from the astrocytic monolayer using a modification of the technique originally described by McCarthy and de Vellis (1980). • 2. Remove the meninges from neonatal rat brain and mechanically dissociate tissue. Plate cells on T75 flasks and feed cells with DMEM/F12+10% FBS. • 3. Collect oligodendrocytes growing on the astrocyte bed layer by shaking-off method fourteen days after the original prep date. Centrifuge the suspension and resuspend the cell pellet in serum free media (SFM; DMEM combined with 25 μg/ml transferring, 30 nM triiodothyronine, 20 nM hydrocortisone, 20 nM progesterone, 10 nM biotin, 1× trace elements, 30 nM selenium, 1 μg/ml putrescine, 0.1% BSA, 5 U/ml PenStrep, 10 μg/ml insulin) supplemented with the following growth factors: Platelet derived growth factor-AA (PDGF) and fibroblast growth factor-2 (FGF). • 4. Plate the cells on PDL-coated dishes and incubate at 37° C. with 6-7% CO2. • 5. Media components are replaced every 48 hr to keep the cells in a progenitor state. Progenitor Cell Passaging to Increase Cell Numbers for Screening Assays: • 1. When the culture are confluent, rinse the culture with PBS, add trypsin and incubate for ˜2-3 min at 37° C. • 2. Neutralize and centrifuge the cell suspension at 900 g for 5 min. • 3. Resuspend the cell pellet in SFM+PDGF/FGF. • 4. Feed the cells with fresh growth factors every 48 hrs to keep enrich for rapidly dividing progenitor cells. • 5. Cells are passaged no more than 4-5 times prior to experimental assays. • 6. All experiments involving oligodendrocyte progenitor cells were done using cells that were continuously maintained under these conditions. Greater than 95% of all cells were A2B5 immunopositive and expressed 2′3′-cyclic nucleotide 3′-phosphodiesterase II mRNA. • 7. To generate mature oligodendrocytes, 24 h after plating progenitor cells were switched to SFM supplemented with or without IGF-I and grown under these conditions for 7 d prior to experimental assays. • 8. Alternatively, the enriched rat Central Glia-4 (CG4) progenitor cell line may be used, which is maintained in base media (DMEM, with 2 mM glutamine, 1 mM sodium pyruvate, biotin (40 nM), insulin (1 μM) and N1) supplemented with 30% conditioned media from the B-104 neuroblastoma cell line. To induce differentiation, CG4 cells are switched to base media with 1% fetal calf serum (removed after 2 days) and insulin (500 nM). A2B5 and MBP immunoreactivity is used to confirm >95% enrichment in immature and mature cultures, respectively. Rat/Mouse Culture Compound Treatment: • 1. […]

`Cc1nc(-c2ccc(C(F)(F)F)cc2)sc1COc1ccc(-c2n[nH]c(=O)o2)cc1` [Example 10, 5-{4-[4-Methyl-2-(4-trifluoromethyl-phenyl)-thiazol-5-ylmethoxy]-phenyl}-3H-[1,3,4]oxadiazol-2-one]: the “Fold Increase in Myelin Basic Protein Expression in Oligodendrocyte Differentiation Assay” value (concentration 10 μM) is 1.5 fold (10).
Turning to `Cc1nc(-c2ccc(C(F)(F)F)cc2)sc1COCc1ccc(-c2n[nH]c(=O)o2)cc1` [Example 14], the “Fold Increase in Myelin Basic Protein Expression in Oligodendrocyte Differentiation Assay” value (concentration 1 μM) is given as 1.5 fold (1).
Same read-out and setting: next, `CCCCc1nc(-c2ccc(C(F)(F)F)cc2)sc1COc1ccc(-c2n[nH]c(=O)o2)c(Cl)c1` [Example 23]: 2 fold (1).
With `CCCCc1nc(-c2ccc(C(F)(F)F)cc2)sc1COc1ccc(Cc2n[nH]c(=O)o2)cc1` [Example 31, 5-{4-[4-Butyl-2-(4-trifluoromethyl-phenyl)-thiazol-5-ylmethoxy]-benzyl}-3H-[1,3,4]oxadiazol-2-one], the “Fold Increase in Myelin Basic Protein Expression in Oligodendrocyte Differentiation Assay” value (concentration 1 μM) was 2 fold (1).
